Results from patent publication US20230211030A1, “SYSTEMS AND METHODS FOR DISINFECTING PLUMBING FIXTURES AND ROOMS WITH PLUMBING FIXTURES” (priority 2021, published 2023).
Where two headings read alike, the source gives them in different places.

Test system: living organisms
Conditions: for ATP results, Under Rim, front: Before 74; for ATP results, Bowl Surface, left: Before 81; for ATP results, Bowl Surface, front: Before 91; for ATP results, Handle: Before 225; for ATP results, Tub Floor, right of drain: Before 6204
Source text: First, a control module or control system was constructed using a Raspberry Pi computer with 7 inch touchscreen monitor, Arduino microcontroller, two electronic breadboards, power supplies, and other electrical interfaces. A computer program written in Python receives inputs from the user via a convenient, single-screen input graphic on the touch screen. The graphic allows the user to independently specify the times that disinfecting fluid is dispensed to the sink, toilet, and shower by pressing up and down keys to increase or decrease minutes and seconds for each time. The time between disinfection cycles or cycle time is also input in the same manner. The graphic allows the chemical pump, 3-MD SC made by Little Giant Pump Co., to be enabled or disabled with the touch of a button. A button to start and stop the disinfecting cycle and also an output telling the user what part of the cycle is being run and how much time is left with that part of the cycle is also provided on the graphic interface screen. […] All chemical lines were made from half inch ID PVC reinforced tubing. Half inch stainless steel ball valves manufactured by U.S. Solid were installed in each branch to each plumbing fixture to control the on/off flow to each plumbing fixture, with the valve electronic actuators being wired to the control module and controlled by the program. The distribution structure conduit or tubing at the plumbing fixtures was customized to the shape and location of each plumbing fixture and was attached to each plumbing fixture in the following manner. […] A plexiglass backsplash was constructed about ten inches in height and 14 inches in width, plus partitions on either side protruding forward from the back panel at 45 degrees to help guide disinfecting fluid into the sink basin. The backsplash was held down to the countertop by a bead of silicone caulk, and the upper branch of tubing was mounted on this backsplash above the faucet. […] Holes were drilled in the tubing into which Quarter Circle Fan Micro Spray nozzles made by Mister Landscaper and available at Lowes were inserted and directed to either spray downward to coat the sink walls directly under the nozzles with disinfecting fluid or outward to spray disinfecting fluid into the sink basin on the opposite side of the sink. […] In this tubing, eleven Half Circle Fan Micro Spray nozzles were inserted with ten directed outwards toward the inner surfaces of the toilet bowl and one directed downwards so as to spray fluid onto a relatively large surface of the toilet bowl in the front of the toilet that sloped more gently and was not easily contacted by spray directed towards the sides. […] The program was configured to first apply disinfecting fluid to the sink for the time inputted for the sink, then the toilet, then the shower. When the cycle begins, the program first opens the ball valve to allow fluid to flow to a particular plumbing fixture, and then the pump is turned on and remains on until the end of the dispensing time, at which point the pump is turned off and the valve is closed. This sequence then repeats sequentially until all three plumbing fixtures have received the prescribed time of disinfecting fluid application.

[1] = Inside Toilet Bowl, After 3.5 Days, 40 secs each hour
[2] = Inside Toilet Bowl, After 6.5 days (40 secs each hour for 3.5 days then 30s each hour for another 3 days)

Substance: hydrogen peroxide [1% H2O2]
- ATP results, Bowl Surface, rear (Inside Toilet Bowl, After 3.5 Days, 40 secs each hour, Before 17): 3 RLU
- ATP results, Under Rim, right (Inside Toilet Bowl, After 3.5 Days, 40 secs each hour, Before 26): 3 RLU
- ATP results, Under Rim, front [1]: 15 RLU
- ATP results, Bowl Surface, left [1]: 5 RLU
- ATP results, Bowl Surface, front [1]: 21 RLU
- ATP results, Bowl Surface (above water), right (Inside Toilet Bowl, After 3.5 Days, 40 secs each hour, Before 173): 7 RLU
- ATP results, Under Rim, left (Inside Toilet Bowl, After 3.5 Days, 40 secs each hour, Before 258): 1 RLU
- ATP results, Under Rim, rear (Inside Toilet Bowl, After 3.5 Days, 40 secs each hour, Before 3083): 2 RLU
- ATP results, Under Rim, front [2]: 2 RLU
- ATP results, Bowl Surface, left [2]: 3 RLU
- ATP results, Bowl Surface, front [2]: 5 RLU
- ATP results, Handle (Shower/Tub, After 3.5 Days, 40 secs each hour, disinfectant missed handle until adjustments were made): 5381^2 RLU
- ATP results, Tub Floor Center (Shower/Tub, After 3.5 Days, 40 secs each hour, Before 1789, remained high due to soap scum not being removed): 557^3 RLU
- ATP results, Tub Floor, left of drain (Shower/Tub, After 3.5 Days, 40 secs each hour, Before 4511): 38 RLU
- ATP results, Tub Floor, right of drain (Shower/Tub, After 3.5 Days, 40 secs each hour): 8 RLU
- ATP results, Inside Drain (Shower/Tub, After 3.5 Days, 40 secs each hour, Before 6559): 6 RLU
- ATP results, Top of Drain Plug and Drain Collar (Shower/Tub, After 3.5 Days, 40 secs each hour, Before 6941): 38 RLU
- ATP results, Handle (Shower/Tub, After 6.5 days (40 secs each hour for 3.5 days then 30s each hour for another 3 days), after spray adjusted to hit handle): 16 RLU
- ATP results, Tub Floor, right of drain (Shower/Tub, After 6.5 days (40 secs each hour for 3.5 days then 30s each hour for another 3 days)): 22 RLU
- ATP results, Sink Basin, Right of Drain (Sink, After 3.5 Days, 40 secs each hour, Before 770): 13 RLU
- ATP results, Sink Counter, left of faucet (Sink, After 3.5 Days, 40 secs each hour, Before 1876): 6 RLU
- ATP results, Inside Drain Collar Wall (Sink, After 3.5 Days, 40 secs each hour, Before 1951): 10 RLU
- ATP results, Top of Drain Plug and Drain Collar (Sink, After 3.5 Days, 40 secs each hour, Before 4351): 46 RLU
- ATP results, Drain Plug, Down Inside Drain (avg) (Sink, After 3.5 Days, 40 secs each hour, Before 6863): 95 RLU
